Drawing on patent publication US12404295B2, “(Hetero)aryl-methyl-thio-beta-D-galactopyranoside derivatives” (Idorsia Pharmaceuticals Ltd, priority 2019, dated 2025), this text covers IC50 for 18 compounds.

Read-outs that look alike come from different tables or passages of the source.

One assay deals with human Gal-3 (hGal-3) (Homo sapiens (Human), UniProt P17931). The experiment in a line: competitive binding assay: biotinylated hGal-3 binding to microplate-adsorbed asialofetuin (ASF). Summed up:
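Competition of compounds with biotinylated human Gal-3 for asialofetuin-coated plates, 3 hours at 4° C. Bound Gal-3 detected with streptavidin-peroxidase (80 ng/mL, 1 hour, 4° C) and ABTS substrate. IC50 reported as the mean of several measurements.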

The target of a further assay is human Gal-1 (hGal-1) (Homo sapiens (Human), UniProt P09382). The assay can be described thus: competitive binding assay: biotinylated hGal-1 binding to microplate-adsorbed asialofetuin (ASF). The following applies: Table 15; read-out: IC50 (Galectin-1 inhibition). Summed up: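 Biotinylated human Gal-1 (300-1000 ng/mL) competes with serially diluted compound for binding to ASF-coated plates, 3 h at 4° C. Bound protein detected with streptavidin-peroxidase and ABTS substrate (spectrophotometric). IC50 given as mean of several measurements.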
Chain of human Gal-1 (hGal-1) (P09382 whole entry): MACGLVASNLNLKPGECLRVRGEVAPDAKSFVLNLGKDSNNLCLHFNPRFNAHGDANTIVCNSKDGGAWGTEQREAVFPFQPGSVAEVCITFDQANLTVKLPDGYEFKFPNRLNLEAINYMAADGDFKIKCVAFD

Where [1] appears, read: Gal-3 inhibition, binding of biotinylated hGal-3 to ASF, mean values, read-out: IC50.
Setting [2] is: Table 5, read-out: IC50 (Gal-3 inhibition).
[3] abbreviates: Table 11, read-out: IC50 (Gal-3 inhibition).

Chain of human Gal-3 (hGal-3) (P17931 whole entry): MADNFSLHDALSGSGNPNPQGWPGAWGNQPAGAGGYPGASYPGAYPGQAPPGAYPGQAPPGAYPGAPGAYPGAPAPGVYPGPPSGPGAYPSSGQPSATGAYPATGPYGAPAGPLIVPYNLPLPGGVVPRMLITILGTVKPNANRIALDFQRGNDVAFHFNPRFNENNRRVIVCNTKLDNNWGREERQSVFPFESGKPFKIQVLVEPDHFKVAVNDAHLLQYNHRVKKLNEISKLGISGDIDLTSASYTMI

In general, IC50 refers to the concentration needed to halve the response being measured. Take `CC(C)Cc1ccccc1[C@H](S[C@@H]1O[C@H](CO)[C@H](O)[C@H](n2cc(-c3cc(F)c(F)c(F)c3)nn2)[C@H]1O)C(C)(C)O` [Example 2.31.107S., (2S,3R,4S,5R,6R)-2-(((S)-2-hydroxy-1-(2-isobutylphenyl)-2-methylpropyl)thio)-6-(hydroxymethyl)-4-(4-(3,4,5-trifluorophenyl)-1H-1,2,3-triazol-1-yl)tetrahydro-2H-pyran-3,5-diol]: the IC50 on human Gal-3 (hGal-3) (setting [1]) stood at 950 nM; at human Gal-1 (hGal-1), 56600 nM.

As to `CCn1nnc(C)c1[C@@H](S[C@@H]1O[C@H](CO)[C@H](O)[C@H](n2cc(-c3cc(F)c(F)c(F)c3)nn2)[C@H]1OC)C1(O)CCC(F)(F)CC1` [Example 2.44.138R.I., (2R,3R,4S,5R,6S)-6-(((R)-(4,4-Difluoro-1-hydroxycyclohexyl)(1-ethyl-4-methyl-1H-1,2,3-triazol-5-yl)methyl)thio)-2-(hydroxymethyl)-5-methoxy-4-(4-(3,4,5-trifluorophenyl)-1H-1,2,3-triazol-1-yl)tetrahydro-2H-pyran-3-ol], the IC50 on human Gal-3 (hGal-3) (Table 10, 2-OMe-Gal inhibitors, read-out: IC50 (Gal-3 inhibition)) was 150 nM; on human Gal-1 (hGal-1) it was 400 nM.

As for `COC(=O)N1CCC(O)([C@H](S[C@@H]2O[C@H](CO)[C@H](O)[C@H](n3cc(-c4cc(F)c(F)c(F)c4)nn3)[C@H]2O)c2ccccc2C(F)(F)F)CC1` [Example 2.50.112R., Methyl 4-((R)-(((2S,3R,4S,5R,6R)-3,5-dihydroxy-6-(hydroxymethyl)-4-(4-(3,4,5-trifluorophenyl)-1H-1,2,3-triazol-1-yl)tetrahydro-2H-pyran-2-yl)thio)(2-(trifluoromethyl)phenyl)methyl)-4-hydroxypiperidine-1-carboxylate], the IC50 at human Gal-3 (hGal-3) (setting [1]) stood at 80 nM; on human Gal-1 (hGal-1) it was 370 nM.

On to `Cc1nc(C)c([C@H](S[C@@H]2O[C@H](CO)[C@H](O)[C@H](n3cc(-c4cc(F)c(F)c(F)c4)nn3)[C@H]2O)C2(O)CCCCC2)nc1C` [Example 2.39.119S., (2S,3R,4S,5R,6R)-2-(((S)-(1-Hydroxycyclohexyl) (3,5,6-trimethylpyrazin-2-yl)methyl)thio)-6-(hydroxymethyl)-4-(4-(3,4,5-trifluorophenyl)-1H-1,2,3-triazol-1-yl)tetrahydro-2H-pyran-3,5-diol], for which the IC50 at human Gal-3 (hGal-3) (setting [2]) came to 3960 nM; on human Gal-1 (hGal-1), 18900 nM.

With `CO[C@@H]1[C@@H](n2cc(-c3cc(F)c(F)c(F)c3)nn2)[C@@H](O)[C@@H](CO)O[C@H]1S[C@H](c1ncccc1C)C1(O)CCC(F)(F)CC1` [Example 2.44.126R.I., (2R,3R,4S,5R,6S)-6-(((R)-(4,4-Difluoro-1-hydroxycyclohexyl)(3-methylpyridin-2-yl)methyl)thio)-2-(hydroxymethyl)-5-methoxy-4-(4-(3,4,5-trifluorophenyl)-1H-1,2,3-triazol-1-yl)tetrahydro-2H-pyran-3-ol], the IC50 on human Gal-3 (hGal-3) (Table 9, 2-OMe-Gal inhibitors, read-out: IC50 (Gal-3 inhibition)) amounted to 70 nM; at human Gal-1 (hGal-1), 680 nM.

On to `CO[C@@H]1[C@@H](n2cc(-c3cc(F)c(F)c(F)c3)nn2)[C@@H](O)[C@@H](CO)O[C@H]1SC(c1ccccc1C(F)(F)F)C1(O)CCN(C(=O)NC2CC2)CC1` (stereo partly drawn) [Example 2.49.112.I.], for which the values for the IC50 at human Gal-3 (hGal-3) (setting [1]) and on human Gal-1 (hGal-1) were 210 nM and 490 nM, respectively.

For “(2S,3R,4S,5R,6R)-2-(((S)-(2-Cyclopropylphenyl)(4,4-difluoro-1-hydroxycyclohexyl)methyl)thio)-6-(hydroxymethyl)-4-(4-(3,4,5-trifluorophenyl)-1H-1,2,3-triazol-1-yl)tetrahydro-2H-pyran-3,5-diol [Example 2.44.106S.]”, the IC50 at human Gal-3 (hGal-3) (setting [2]) was determined as 930 nM; on human Gal-1 (hGal-1), 1900 nM.

As to `Cc1ccccc1C(S[C@@H]1O[C@H](CO)[C@H](O)[C@H](n2cc(-c3cc(F)c(F)c(F)c3)nn2)[C@H]1O)C1(O)CCCCC1` (stereo partly drawn) [Example 2.39.102., (2S,3R,4S,5R,6R)-2-(((1-Hydroxycyclohexyl)(o-tolyl)methyl)thio)-6-(hydroxymethyl)-4-(4-(3,4,5-trifluorophenyl)-1H-1,2,3-triazol-1-yl)tetrahydro-2H-pyran-3,5-diol], the IC50 on human Gal-3 (hGal-3) (setting [2]) was found to be 90 nM; at human Gal-1 (hGal-1), 1600 nM.

Consider `Cc1c(F)cc(-c2cn([C@H]3[C@@H](O)[C@@H](CO)O[C@@H](S[C@@H](c4ccccc4C(F)(F)F)C(C)(C)O)[C@@H]3O)nn2)cc1F` [Example 3.31.112S., (2S,3R,4S,5R,6R)-4-(4-(3,5-Difluoro-4-methylphenyl)-1H-1,2,3-triazol-1-yl)-2-(((S)-2-hydroxy-2-methyl-1-(2-(trifluoromethyl)phenyl)propyl)thio)-6-(hydroxymethyl)tetrahydro-2H-pyran-3,5-diol], for which the 50% inhibitory concentration (IC50) at human Gal-3 (hGal-3) (setting [1]) was determined as 4850 nM; at human Gal-1 (hGal-1), 54200 nM.

In the case of `Cc1ccnnc1[C@H](S[C@@H]1O[C@H](CO)[C@H](O)[C@H](n2cc(-c3cc(F)c(F)c(F)c3)nn2)[C@H]1O)C1(O)CCC(F)(F)CC1` [Example 2.44.135S., (2S,3R,4S,5R,6R)-2-(((S)-(4,4-Difluoro-1-hydroxycyclohexyl)(4-methylpyridazin-3-yl)methyl)thio)-6-(hydroxymethyl)-4-(4-(3,4,5-trifluorophenyl)-1H-1,2,3-triazol-1-yl)tetrahydro-2H-pyran-3,5-diol], the figures for the IC50 on human Gal-3 (hGal-3) (setting [1]) and on human Gal-1 (hGal-1) were 2790 nM and 5430 nM, respectively.

For the compound `CO[C@@H]1[C@@H](n2cc(-c3cc(F)c(F)c(F)c3)nn2)[C@@H](O)[C@@H](CO)O[C@H]1SC(c1nc(Cl)ccc1Cl)C1(O)CCC(F)(F)CC1` (stereo partly drawn) [Example 2.44.144.I., (2R,3R,4S,5R,6S)-6-(((3,6-Dichloropyridin-2-yl)(4,4-difluoro-1-hydroxycyclohexyl)methyl)thio)-2-(hydroxymethyl)-5-methoxy-4-(4-(3,4,5-trifluorophenyl)-1H-1,2,3-triazol-1-yl)tetrahydro-2H-pyran-3-ol], the IC50 on human Gal-3 (hGal-3) (setting [3]) was determined as 250 nM; at human Gal-1 (hGal-1), 4160 nM.

Turning to `CO[C@@H]1[C@@H](n2cc(-c3cc(F)c(F)c(F)c3)nn2)[C@@H](O)[C@@H](CO)O[C@H]1S[C@@H](c1nccc(Cl)c1C)C1(O)CCC(F)(F)CC1` [Example 2.44.141S.I., (2R,3R,4S,5R,6S)-6-(((S)-(4-Chloro-3-methylpyridin-2-yl)(4,4-difluoro-1-hydroxycyclohexyl)methyl)thio)-2-(hydroxymethyl)-5-methoxy-4-(4-(3,4,5-trifluorophenyl)-1H-1,2,3-triazol-1-yl)tetrahydro-2H-pyran-3-ol], the IC50 was 3500 nM on human Gal-3 (hGal-3) (setting [3]) and 10500 nM on human Gal-1 (hGal-1).

`Cc1ccccc1[C@H](S[C@@H]1O[C@H](CO)[C@H](O)[C@H](n2cc(-c3cc(F)c(F)c(F)c3)nn2)[C@H]1O)C1(O)CC(C)C1` (stereo partly drawn) [Example 2.36.102S., (2S,3R,4S,5R,6R)-2-(((1S)-(1-Hydroxy-3-methylcyclobutyl)(o-tolyl)methyl)thio)-6-(hydroxymethyl)-4-(4-(3,4,5-trifluorophenyl)-1H-1,2,3-triazol-1-yl)tetrahydro-2H-pyran-3,5-diol]: the IC50 is 7200 nM on human Gal-3 (hGal-3) (setting [2]) and 54200 nM on human Gal-1 (hGal-1).

On to `CCO[C@@H]1[C@@H](n2cc(-c3cc(F)c(F)c(F)c3)nn2)[C@@H](O)[C@@H](CO)O[C@H]1SC(c1ncccc1C)C1(O)CCC(F)(F)CC1` (stereo partly drawn) [Example 2.44.126.II., (2R,3R,4S,5R,6S)-6-(((4,4-Difluoro-1-hydroxycyclohexyl)(3-methylpyridin-2-yl)methyl)thio)-5-ethoxy-2-(hydroxymethyl)-4-(4-(3,4,5-trifluorophenyl)-1H-1,2,3-triazol-1-yl)tetrahydro-2H-pyran-3-ol], for which the IC50 on human Gal-3 (hGal-3) (setting [1]) came out at 160 nM; at human Gal-1 (hGal-1), 1320 nM.

As for `Cc1nc(C)c([C@H](S[C@@H]2O[C@H](CO)[C@H](O)[C@H](n3cc(-c4cc(F)c(F)c(F)c4)nn3)[C@H]2O)C2(O)CCC(F)(F)CC2)nc1C` [Example 2.44.119S., (2S,3R,4S,5R,6R)-2-(((S)-(4,4-Difluoro-1-hydroxycyclohexyl)(3,5,6-trimethylpyrazin-2-yl)methyl)thio)-6-(hydroxymethyl)-4-(4-(3,4,5-trifluorophenyl)-1H-1,2,3-triazol-1-yl)tetrahydro-2H-pyran-3,5-diol], the IC50 at human Gal-3 (hGal-3) (setting [2]) was determined as 700 nM; on human Gal-1 (hGal-1), 7210 nM.

Consider `Cc1ccccc1C(S[C@@H]1O[C@H](CO)[C@H](O)[C@H](n2cc(-c3cc(F)c(F)c(F)c3)nn2)[C@H]1O)C1(O)CC(C)C1` (stereo partly drawn) [Example 2.36.102., (2S,3R,4S,5R,6R)-2-(((1-Hydroxy-3-methylcyclobutyl)(o-tolyl)methyl)thio)-6-(hydroxymethyl)-4-(4-(3,4,5-trifluorophenyl)-1H-1,2,3-triazol-1-yl)tetrahydro-2H-pyran-3,5-diol], for which the figures for the IC50 on human Gal-3 (hGal-3) (setting [2]) and at human Gal-1 (hGal-1) were 460 nM and 13200 nM, respectively.

In the case of `Cc1ccccc1[C@@H](S[C@@H]1O[C@H](CO)[C@H](O)[C@H](n2cc(-c3cc(F)c(F)c(F)c3)nn2)[C@H]1O)C(C)(C)O` [Example 2.31.102R., (2S,3R,4S,5R,6R)-2-(((R)-2-Hydroxy-2-methyl-1-(o-tolyl)propyl)thio)-6-(hydroxymethyl)-4-(4-(3,4,5-trifluorophenyl)-1H-1,2,3-triazol-1-yl)tetrahydro-2H-pyran-3,5-diol], the IC50 on human Gal-3 (hGal-3) (setting [1]) was 120 nM; on human Gal-1 (hGal-1), 1420 nM.

In the case of `Cc1conc1[C@@H](S[C@@H]1O[C@H](CO)[C@H](O)[C@H](n2cc(-c3cc(F)c(F)c(F)c3)nn2)[C@H]1O)C(C)(C)O` [Example 2.31.120R., (2S,3R,4S,5R,6R)-2-(((R)-2-Hydroxy-2-methyl-1-(4-methylisoxazol-3-yl)propyl)thio)-6-(hydroxymethyl)-4-(4-(3,4,5-trifluorophenyl)-1H-1,2,3-triazol-1-yl)tetrahydro-2H-pyran-3,5-diol], the figures for the IC50 at human Gal-3 (hGal-3) (setting [1]) and on human Gal-1 (hGal-1) were 320 nM and 1800 nM, respectively.
